For one assay, the target named is UniProt O75582. Put plainly: pIC50, competition of probe 3 labelling in live cells. As to conditions: cell material: Jurkat cells.
In the next assay the target is SRC (UniProt P12931). The assay is described as above. Conditions: cell material: Jurkat cells.
The target in a further assay is UniProt Q15208. The assay is described as above. As to conditions: cell material: Jurkat cells.
A further assay addresses UniProt Q9Y6E0. Described as above. As to conditions: cell material: Jurkat cells.
A further assay concerns the target NT5C3B (UniProt Q969T7). The description is as above. As to conditions: cell material: Jurkat cells.
The next assay concerns the target T1, UniProt Q13043.
T1 sequence (whole entry): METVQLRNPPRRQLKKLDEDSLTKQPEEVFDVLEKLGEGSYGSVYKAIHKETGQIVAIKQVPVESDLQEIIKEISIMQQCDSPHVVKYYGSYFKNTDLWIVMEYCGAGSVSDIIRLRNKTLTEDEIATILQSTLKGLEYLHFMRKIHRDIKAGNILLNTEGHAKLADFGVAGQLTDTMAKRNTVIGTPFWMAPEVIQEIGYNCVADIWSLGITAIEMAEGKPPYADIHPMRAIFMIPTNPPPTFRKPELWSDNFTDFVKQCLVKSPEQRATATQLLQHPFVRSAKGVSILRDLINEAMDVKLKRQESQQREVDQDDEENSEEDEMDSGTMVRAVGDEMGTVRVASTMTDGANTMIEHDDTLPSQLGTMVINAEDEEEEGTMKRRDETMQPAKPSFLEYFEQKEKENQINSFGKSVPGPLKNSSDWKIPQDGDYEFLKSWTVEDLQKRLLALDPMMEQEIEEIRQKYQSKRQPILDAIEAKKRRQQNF
Described as above. As to conditions: cell material: Jurkat cells.

In another assay the target is T2, UniProt O43318.
T2 sequence (whole entry): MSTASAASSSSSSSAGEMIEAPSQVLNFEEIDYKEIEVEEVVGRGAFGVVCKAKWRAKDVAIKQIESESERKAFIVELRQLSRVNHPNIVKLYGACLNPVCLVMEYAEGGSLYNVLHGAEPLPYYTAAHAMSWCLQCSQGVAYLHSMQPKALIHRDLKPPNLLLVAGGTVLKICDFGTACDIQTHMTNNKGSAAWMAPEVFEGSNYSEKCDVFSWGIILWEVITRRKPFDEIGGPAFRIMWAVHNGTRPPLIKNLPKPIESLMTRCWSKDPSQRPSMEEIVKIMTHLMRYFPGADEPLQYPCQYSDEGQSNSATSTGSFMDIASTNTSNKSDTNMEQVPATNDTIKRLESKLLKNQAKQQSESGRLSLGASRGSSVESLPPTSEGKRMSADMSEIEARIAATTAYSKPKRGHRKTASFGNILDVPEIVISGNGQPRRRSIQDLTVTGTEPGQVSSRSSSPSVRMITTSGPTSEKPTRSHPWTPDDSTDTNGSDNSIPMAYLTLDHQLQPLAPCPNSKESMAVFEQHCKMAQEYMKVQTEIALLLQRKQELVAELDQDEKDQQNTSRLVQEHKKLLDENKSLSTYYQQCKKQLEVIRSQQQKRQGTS
The description is as above. Conditions: cell material: Jurkat cells.

The next assay addresses TAOK3 (UniProt Q9H2K8). Described as above. Conditions: cell material: Jurkat cells.
For another assay, the target named is CLK3 (UniProt P49761). The assay is described as above. Conditions: cell material: Jurkat cells.
In the next assay the target is CTSA (UniProt P10619). The assay is described as above. Conditions: cell material: Jurkat cells.
In the next assay the target is UniProt P28482. Described as above. Conditions: cell material: Jurkat cells.
The next assay has as its target SPR (UniProt P35270). The assay is described as above. As to conditions: cell material: Jurkat cells.
A further assay addresses UniProt P27361. The description is as above. Conditions: cell material: Jurkat cells.
The next assay addresses UniProt P19525. The description is as above. As to conditions: cell material: Jurkat cells.
The target of another assay is ABCC1 (UniProt P33527). Described as above. Conditions: cell material: Jurkat cells.
Another assay deals with LYPLA1 (UniProt O75608). The description is as above. Conditions: cell material: Jurkat cells.
In another assay the target is PNPLA6 (UniProt Q8IY17). The assay is described as above. As to conditions: cell material: Jurkat cells.
For the next assay, the target named is UniProt Q9Y2H1. The assay is described as above. Conditions: cell material: Jurkat cells.
A further assay deals with UniProt P19784. The description is as above. As to conditions: cell material: Jurkat cells.
In a further assay the target is FTO (UniProt Q9C0B1). Described as above. As to conditions: cell material: Jurkat cells.
The target of another assay is UniProt Q8NEB9. Described as above. Conditions: cell material: Jurkat cells.
Another assay has as its target CAMKK2 (UniProt Q96RR4). The description is as above. As to conditions: cell material: Jurkat cells.
The target in another assay is UniProt Q13233. Put plainly: pIC50, kinobeads binding competition. As to conditions: cell material: Jurkat lysate.
In another assay the target is UniProt P80192. Put plainly: pIC50, kinobeads binding competition. Conditions: cell material: Jurkat lysate.
The target of a further assay is UniProt Q13557. Put plainly: pIC50, kinobeads binding competition. Conditions: cell material: Jurkat lysate.
The target of the next assay is UniProt P45984. Put plainly: pIC50, competition of probe 3 labelling in live cells. As to conditions: cell material: Jurkat cells.
A further assay addresses CDK2 (UniProt P24941). The assay is described as above. Conditions: cell material: Jurkat cells.
The next assay concerns the target UniProt Q02750. Described as above. Conditions: cell material: Jurkat cells.
A further assay deals with UniProt P06493. Described as above. Conditions: cell material: Jurkat cells.
A further assay has as its target RIPK1 (UniProt Q13546). The assay is described as above. Conditions: cell material: Jurkat cells.
The next assay addresses UniProt P36507. Described as above. Conditions: cell material: Jurkat cells.
The target in the next assay is CAMK1D (UniProt Q8IU85). Described as above. Conditions: cell material: Jurkat cells.

For 2 molecules, pIC50 results are on record in the supplement of paper PMC12076712.

Consider `CCc1cnn2c(NCc3ccc[n+]([O-])c3)cc(N3CCCC[C@H]3CCO)nc12` [dinaciclib], for which the negative logarithm of the IC50 (pIC50) at UniProt O75582, at SRC, at UniProt Q15208, on UniProt Q9Y6E0, on NT5C3B and at UniProt Q13043 was less than 4.52 each time. For the same molecule, the negative logarithm of the IC50 (pIC50) on UniProt O43318, at TAOK3, at CLK3, at CTSA, on UniProt P28482 and on SPR was less than 4.52 each time. Also, the pIC50 at UniProt P27361, on UniProt P19525, at ABCC1, at LYPLA1, on PNPLA6 and on UniProt Q9Y2H1 was less than 4.52 each time. Moreover, the pIC50 on UniProt P19784, on FTO, on UniProt Q8NEB9, on CAMKK2, on UniProt Q13233 and on UniProt P80192 was less than 4.52 in each case. Besides, the pIC50 (as a rule, the IC50 on a negative log10 scale, so that one unit is a factor of ten) at UniProt Q13557 is less than 4.52.

For `CC#CC(=O)Nc1ccc2ncnc(Nc3cccc(Br)c3)c2c1` [EKI-785], the negative logarithm of the IC50 (pIC50) on UniProt P45984 is 4.6; on CDK2 it was less than 4.52; at UniProt Q02750, less than 4.52; at UniProt P06493, less than 4.52; at RIPK1, less than 4.52; at UniProt P36507, less than 4.52. Moreover, the pIC50 on CAMK1D was less than 4.52.
